Laboratory results from patent US20220056043A1, “NITROGEN-CONTAINING FUSED CYCLIC COMPOUND, PREPARATION METHOD THEREFOR AND USE THEREOF” (SICHUAN KELUN-BIOTECH BIOPHARMACEUTICAL CO., LTD., priority 2019, published 2022).

Tests used:
[1] = system: THP1-defNLRP3 cells; test: Agonistic effect on the expression of IL-1β in NLRP3 deficient THP1 cells (THP1-defNLRP3) after PMA-induced differentiation (HTRF); assay type: cell-based, human; conditions: Homo sapiens, THP-1; IL-1β level, PMA-differentiated NLRP3 deficient THP1 cells, 6 hours; highest test concentration 30 μM; read-out: hNLRP3 EC50 (μM) (THP-1defNLRP3)
Method in brief: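 PMA-differentiated (1 μM, 24 h) NLRP3-deficient THP1 macrophages, 1×10^5 cells/well in RPMI 1640 with 2% heat-inactivated FBS, treated with compound for 6 h at 37 °C. Supernatant IL-1β measured by HTRF. EC50 from four-parameter variable-slope fit.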

[2] = target: T1, hTLR7 (Homo sapiens, UniProt Q9NYK1); test: Agonistic effect on hTLR7, HEK-hTLR7-NF-κB-Luciferase reporter cells; assay type: cell-based; conditions: 16 hours
T1 construct: host or cells: HEK-hTLR7-NF-κB-Luciferase cells
T1 sequence (Q9NYK1 27-1049): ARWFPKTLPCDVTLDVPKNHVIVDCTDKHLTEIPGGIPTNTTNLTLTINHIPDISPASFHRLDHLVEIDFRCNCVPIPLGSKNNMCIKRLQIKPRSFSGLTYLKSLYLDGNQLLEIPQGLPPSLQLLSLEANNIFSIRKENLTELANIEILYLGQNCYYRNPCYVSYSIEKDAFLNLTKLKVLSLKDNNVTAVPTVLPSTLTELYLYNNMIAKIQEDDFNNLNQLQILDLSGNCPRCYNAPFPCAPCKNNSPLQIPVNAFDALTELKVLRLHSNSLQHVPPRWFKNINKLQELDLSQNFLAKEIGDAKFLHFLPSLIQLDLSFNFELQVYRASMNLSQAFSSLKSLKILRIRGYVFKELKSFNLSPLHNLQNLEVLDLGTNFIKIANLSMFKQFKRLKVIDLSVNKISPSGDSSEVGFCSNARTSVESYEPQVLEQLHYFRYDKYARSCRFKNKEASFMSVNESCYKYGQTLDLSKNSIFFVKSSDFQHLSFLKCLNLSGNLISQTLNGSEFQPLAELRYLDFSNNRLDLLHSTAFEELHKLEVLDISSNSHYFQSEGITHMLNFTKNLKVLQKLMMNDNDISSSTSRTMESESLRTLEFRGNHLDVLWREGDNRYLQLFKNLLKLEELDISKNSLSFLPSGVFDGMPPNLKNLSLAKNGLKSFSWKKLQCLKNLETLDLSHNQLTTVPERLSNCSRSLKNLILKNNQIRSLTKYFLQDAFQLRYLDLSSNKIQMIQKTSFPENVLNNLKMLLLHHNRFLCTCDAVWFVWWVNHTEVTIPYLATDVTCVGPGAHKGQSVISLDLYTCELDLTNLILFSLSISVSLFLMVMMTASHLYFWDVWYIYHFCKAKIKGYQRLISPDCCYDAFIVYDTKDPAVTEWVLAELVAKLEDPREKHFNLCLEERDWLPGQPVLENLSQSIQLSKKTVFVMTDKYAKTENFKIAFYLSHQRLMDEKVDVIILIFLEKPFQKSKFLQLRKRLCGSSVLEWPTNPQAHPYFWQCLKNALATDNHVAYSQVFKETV
Method in brief: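 HEK cells carrying human TLR7 and NF-κB-luciferase reporter, […] in DMEM with 10% FBS, exposed to compound for 16 h at 37 °C, 5% CO2; serves as specificity counterscreen to NLRP3 activity. Luminescence (RLU) after 5 min with luciferase reagent; EC50 by four-parameter variable-slope fit.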

With `COCCNc1cc(N)nc2c(C)c(-c3cc[nH]n3)sc12` [Compound 152] the EC50 [1] was > 30 µM and the EC50 [2] was > 100 µM.
